Assay results from PubChem BioAssay AID1259408 (Genetic Toxicology Data Bank (GENE-TOX), 2018).
Active and inactive are the calls of the source. No rule for the calls is given here.

Tested on: GENE-TOX genotoxicity assays, various organisms and cells
Assay: GENE-TOX mutagenicity studies
Conditions: for call: Assay Type: In vivo carcinogenicity studies, Assay Code: CCG+
[1] = Species/Cell Type: Nonhuman, Assay Type: Sister-chromatid exchange (SCE) in vitro, Assay Code: SC2+D, Dose Response: With dose response, Evaluation Type: Evaluation B (Post-1980)
[2] = Species/Cell Type: Salmonella typhimurium, Assay Type: Forward and reverse gene mutation, host-mediated assay, Assay Code: HMAT, Evaluation Type: Evaluation A (Pre-1980)
[3] = Species/Cell Type: Nonhuman, Evaluation Type: Evaluation A (Pre-1980)
[4] = Species/Cell Type: Salmonella typhimurium (one or more of the five standard strains: TA98, TA100, TA1535, TA1537, and TA1538), Assay Type: Histidine reverse gene mutation, Ames assay, Assay Code: SAL+, Evaluation Type: Evaluation A (Pre-1980)
[5] = Species/Cell Type: Drosophila melanogaster, Assay Type: Sex-linked recessive lethal gene mutation, Assay Code: SRLT, Evaluation Type: Evaluation A (Pre-1980)

SMILES: Cc1[nH]cnc1CSCCN=C(NC#N)N(C)N=O
- mutagenic call (Species/Cell Type: Human lymphocytes, Assay Type: Sister-chromatid exchange (SCE) in vitro, Assay Code: SCL+D, Dose Response: With dose response, Evaluation Type: Evaluation B (Post-1980)): active; positive
- mutagenic call (Species/Cell Type: Human, Assay Type: Sister-chromatid exchange (SCE) in vitro, Assay Code: SC1+D, Dose Response: With dose response, Evaluation Type: Evaluation B (Post-1980)): active; positive
- mutagenic call [1]: active; positive

SMILES: [Cl][Pb][Cl]
- mutagenic call (Species/Cell Type: Bacillus subtilis (H17 vs M45), Assay Type: Rec-assay, spot test, DNA effects (bacterial DNA repair), Assay Code: REW-, Evaluation Type: Evaluation A (Pre-1980)): inactive; negative

SMILES: C=CCNC(=O)Nc1nc(-c2ccccc2)cs1
- mutagenic call [2]: no conclusion

SMILES: c1ccc2c(c1)-c1cccc3c1c-2cc1ccccc13
- call [3]: active; positive
- mutagenic call (Species/Cell Type: Nonhuman, Assay Type: Sister-chromatid exchange (SCE) in vivo, Assay Code: SC3+, Evaluation Type: Evaluation B (Post-1980)): active; positive
- mutagenic call (Species/Cell Type: Nonhuman, Assay Type: Sister-chromatid exchange (SCE) in vivo, Assay Code: SC3T, Evaluation Type: Evaluation A (Pre-1980)): no conclusion

SMILES: CN1CCN(CCCN2c3ccccc3Sc3ccccc32)CC1
- mutagenic call (Species/Cell Type: Human lymphocytes, Assay Type: Sister-chromatid exchange (SCE) in vitro, Assay Code: SCLT, Evaluation Type: Evaluation B (Post-1980)): no conclusion
- mutagenic call (Species/Cell Type: Human, Assay Type: Sister-chromatid exchange (SCE) in vitro, Assay Code: SC1T, Evaluation Type: Evaluation B (Post-1980)): no conclusion

SMILES: C=CCNC(=O)OC1(Sc2ccccc2)C(=O)c2ccccc2C1=O
- mutagenic call [2]: no conclusion

SMILES: O[C@@H]1[C@@H](O)[C@@H](O)c2c(cc3ccc4cccc5ccc2c3c45)[C@H]1O
- mutagenic call (Species/Cell Type: Chinese hamster lung (V79) cells, Assay Type: Forward gene mutation at the HPRT or ouabain locus, Assay Code: V79-*, Activation: With metabolic activation, Evaluation Type: Evaluation A (Pre-1980)): inactive; negative

SMILES: O[C@@H]1[C@H]2O[C@H]2c2cc3ccc4cccc5ccc(c2[C@H]1O)c3c45
- mutagenic call [4]: active; positive

SMILES: Cc1ccc2cc3c(c4c2c1CC4)[C@@H](O)[C@@H](O)c1ccccc1-3
- mutagenic call (Species/Cell Type: Chinese hamster lung (V79) cells, Assay Type: Forward gene mutation at the HPRT or ouabain locus, Assay Code: V79+, Evaluation Type: Evaluation A (Pre-1980)): active; positive
- mutagenic call (Species/Cell Type: Mouse prostate cells, Assay Type: Cell transformation, Assay Code: CTMT, Evaluation Type: Evaluation A (Pre-1980)): no conclusion

SMILES: O=Nc1ccc(Nc2ccccc2)cc1
- call [3]: active; positive

SMILES: BrCc1c2ccccc2cc2ccccc12
- mutagenic call [4]: active; positive

SMILES: Cc1cc2nc3cc(C)c(N)cc3[n+](-c3ccccc3)c2cc1N
- mutagenic call (Species/Cell Type: Bacillus subtilis (H17 vs M45), Assay Type: Rec-assay, spot test, DNA effects (bacterial DNA repair), Assay Code: REWT, Evaluation Type: Evaluation A (Pre-1980)): no conclusion

SMILES: Cc1ccc(C(C)C)c(O)c1
- mutagenic call (Species/Cell Type: Allium cepa, Assay Type: Chromosome aberrations, Assay Code: ALC-, Evaluation Type: Evaluation A (Pre-1980)): inactive; negative
- mutagenic call [5]: no conclusion

SMILES: OC(c1ccc2c(c1)OCO2)C1CO1 (stereo unspecified)
- mutagenic call [5]: no conclusion
- mutagenic call [4]: active; positive

SMILES: CCN(CC)CCNc1ccc(O)c2c1C(=O)c1ccccc1S2=O (stereo unspecified)
- mutagenic call (Species/Cell Type: Fischer rat embryo (RLV/1706) cells, Assay Type: Cell transformation, viral enhanced, Assay Code: CTR+, Evaluation Type: Evaluation A (Pre-1980)): active; positive

SMILES: O=S(O)OS(=O)O
- mutagenic call (Species/Cell Type: Escherichia coli WP2 UVRA, Assay Type: Tryptophan reverse gene mutation, Assay Code: WPU-*, Activation: With metabolic activation, Evaluation Type: Evaluation A (Pre-1980)): inactive; negative

SMILES: CC1CN(N=O)CC(C)N1N=O (stereo unspecified)
- mutagenic call (Species/Cell Type: Salmonella typhimurium (one or more of the five standard strains: TA98, TA100, TA1535, TA1537, and TA1538), Assay Type: Histidine reverse gene mutation, Ames assay, Assay Code: SAL+*, Activation: With metabolic activation, Evaluation Type: Evaluation A (Pre-1980)): active; positive

SMILES: COc1ccc2nc3cc(Cl)ccc3c(NCCCSCCCl)c2n1
- mutagenic call (Species/Cell Type: Chinese hamster ovary (CHO) cells, Assay Type: Forward gene mutation at the HPRT locus, Assay Code: CHO+, Evaluation Type: Evaluation B (Post-1980)): active; positive

SMILES: O=[N+]([O-])c1cnc[nH]1
- mutagenic call (Species/Cell Type: Salmonella typhimurium (one or more of the five standard strains: TA98, TA100, TA1535, TA1537, and TA1538), Assay Type: Histidine reverse gene mutation, Ames assay, Assay Code: SALT, Evaluation Type: Evaluation A (Pre-1980)): no conclusion

SMILES: c1cc2c3c(cccc3c1)CC2
- mutagenic call (Species/Cell Type: Drosophila melanogaster, Assay Type: Aneuploidy, sex chromosome gain, chromosome aberrations, Assay Code: DAGT, Evaluation Type: Evaluation A (Pre-1980)): no conclusion

SMILES: Clc1cccc(Cl)c1Cl
- mutagenic call (Species/Cell Type: Mammalian polychromatic erythrocytes, Assay Type: Micronucleus test, chromosome aberrations, Assay Code: MNT+, Evaluation Type: Evaluation B (Post-1980)): active; positive

SMILES: CN[C@H]1[C@@H](O[C@@H]2C3CC#CC4O[C@@]4(C4COC(=O)O4)C#CC3=C[C@H]2OC(=O)c2c(O)ccc3c(C)cc(OC)cc23)O[C@H](C)[C@H](O)[C@@H]1O (stereo partly specified)
- mutagenic call (Species/Cell Type: Escherichia coli WP2, Assay Type: Tryptophan reverse gene mutation, Assay Code: WP2+D, Dose Response: With dose response, Evaluation Type: Evaluation A (Pre-1980)): active; positive
- mutagenic call (Species/Cell Type: Escherichia coli WP2 UVRA, Assay Type: Tryptophan reverse gene mutation, Assay Code: WPU+D, Dose Response: With dose response, Evaluation Type: Evaluation A (Pre-1980)): active; positive
- mutagenic call (Species/Cell Type: Human diploid fibroblasts, Assay Type: Unscheduled DNA synthesis (UDS) in vitro, DNA effects, Assay Code: UDH+D, Dose Response: With dose response, Evaluation Type: Evaluation A (Pre-1980)): active; positive
- mutagenic call [1]: active; positive

SMILES: Nc1ncnc2c1ccn2[C@@H]1O[C@H](CO)[C@@H](O)[C@H]1O
- mutagenic call (Species/Cell Type: Fischer rat embryo (RLV/1706) cells, Assay Type: Cell transformation, viral enhanced, Assay Code: CTR-, Evaluation Type: Evaluation A (Pre-1980)): inactive; negative

SMILES: ClC1(Cl)C2(Cl)C3(Cl)C4(Cl)C(Cl)(Cl)C5(Cl)C3(Cl)C1(Cl)C5(Cl)C24Cl (stereo unspecified)
- call [3]: active; positive
- mutagenic call (Species/Cell Type: Rodents, Sex: Male, Assay Type: Dominant lethal test, Assay Code: DLT-, Evaluation Type: Evaluation A (Pre-1980)): inactive; negative
